Data as given in ChEMBL document CHEMBL4229477, “Reevaluating the Substrate Specificity of the L-Type Amino Acid Transporter (LAT1)” (J Med Chem, 2018).

What was measured:
[1] = target: Large neutral amino acids transporter small subunit 1 (Homo sapiens) (UniProt Q01650); assay: Cis-inhibition of human LAT1 expressed in TREx HEK293 cells at 200 uM assessed as inhibition of [3H]-gabapentin uptake at 200 uM preincubated for 3 mins at 37 degC followed by washing with choline buffer and measured after 3 hrs by scintillation counting analysis relative to BCH; assay type: cell-based
Large neutral amino acids transporter small subunit 1 (Homo sapiens), sequence (Q01650 whole entry): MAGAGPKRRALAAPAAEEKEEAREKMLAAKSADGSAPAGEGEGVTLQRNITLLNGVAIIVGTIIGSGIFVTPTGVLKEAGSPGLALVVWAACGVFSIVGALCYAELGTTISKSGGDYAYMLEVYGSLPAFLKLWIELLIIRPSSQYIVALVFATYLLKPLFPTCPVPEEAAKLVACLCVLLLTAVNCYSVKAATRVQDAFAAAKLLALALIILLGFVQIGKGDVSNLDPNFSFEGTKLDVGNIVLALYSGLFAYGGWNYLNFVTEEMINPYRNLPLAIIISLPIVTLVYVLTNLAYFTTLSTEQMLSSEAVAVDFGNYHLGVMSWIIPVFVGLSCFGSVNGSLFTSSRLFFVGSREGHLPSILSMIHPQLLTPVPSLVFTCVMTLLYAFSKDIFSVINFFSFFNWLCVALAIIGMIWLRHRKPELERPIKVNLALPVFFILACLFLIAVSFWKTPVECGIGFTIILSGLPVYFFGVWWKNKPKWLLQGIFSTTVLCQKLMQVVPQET

[2] = target: Large neutral amino acids transporter small subunit 1 (Homo sapiens) (UniProt Q01650); assay: Trans-stimulation of human LAT1 expressed in TREx HEK293 cells assessed as induction of [3H]-gabapentin efflux at 200 uM after 3 mins by scintillation counting analysis relative to L-phenylalanine; assay type: cell-based
N[C@@H](Cc1ccccc1)C(=O)O [3] = assay: Binding affinity to LAT1 (unknown origin) by in-vitro cell uptake assay; settings: Homo sapiens
N[C@@H](Cc1ccccc1)C(=O)O [4] = assay: (§1) Substrate activity at recombinant human LAT1 expressed in Xenopus laevis oocytes assessed as Km by measuring L-[14C]-leucine uptake by Eadie-Hofstee plot method; assay type: cell-based
N[C@H](Cc1ccccc1)C(=O)O = assay: as §1; assay type: cell-based

Large neutral amino acids transporter small subunit 1 (Homo sapiens), Q01650, sequence (Q01650 whole entry): as above

Compound	inhibition [1] [%]	Activity [2] [%]	Km (N[C@@H](Cc1ccccc1)C(=O)O [3]) [µM]	Km (N[C@@H](Cc1ccccc1)C(=O)O [4]) [µM]	Km (N[C@H](Cc1ccccc1)C(=O)O) [µM]
CC(C)C[C@](N)(Cc1ccccc1)C(=O)O	15	19			
N[C@@H](Cc1ccccc1)C(=O)O		100			
N[C@@H](Cc1cccc(O)c1)C(=O)O	97	96			
N[C@@](Cc1ccccc1)(Cc1c[nH]cn1)C(=O)O	19	13			
Cc1ccc(C[C@H](N)C(=O)O)cc1		100			
N[C@@H](Cc1c[nH]cn1)C(=O)O	92	140			
COC(=O)c1cccc(C[C@@H](N)C(=O)O)c1	40	41			
NCCCC[C@H](N)C(=O)O	-2.1	33			
N=C(N)NCCC[C@H](N)C(=O)O		28			
Nc1cccc(C[C@H](N)C(=O)O)c1	100	100			
COC(=O)c1cccc(C[C@H](N)C(=O)O)c1	81	89			
N[C@H](Cc1c[nH]c2ccccc12)C(=O)O	29	81			
N#Cc1cccc(C[C@H](N)C(=O)O)c1	67	70			
Large neutral amino acids transporter small subunit 1 (Homo sapiens), Q01650			11	14.2	121
CC[C@H](C)[C@H](N)C(=O)O		93			
CC(=O)Nc1cccc(C[C@H](N)C(=O)O)c1	85	110			
CC(C)[C@H](N)C(=O)O	43	100			
NC(Cc1ccccc1)(Cc1ccccc1)C(=O)O	11	23			
Cc1cccc(C[C@H](N)C(=O)O)c1		140			
N[C@@H](Cc1cn(Cc2ccccc2)cn1)C(=O)O	74	81			
CSCC[C@@H](N)C(=O)O	56	110			
CC(C)(C)OC(=O)c1cccc(C[C@H](N)C(=O)O)c1	99	70			
N[C@H](Cc1c[nH]cn1)C(=O)O	33	78			
N[C@@H](Cc1cccc(C(=O)O)c1)C(=O)O	69	56			
N[C@@H](Cc1ccc(O)cc1)C(=O)O		96			
CC(C)[C@@H](N)C(=O)O	11	41			

Compound	inhibition [1] [%]	Activity [2] [%]	Km (N[C@@H](Cc1ccccc1)C(=O)O [3]) [µM]	Km (N[C@@H](Cc1ccccc1)C(=O)O [4]) [µM]	Km (N[C@H](Cc1ccccc1)C(=O)O) [µM]
CC(C)C[C@@](N)(Cc1ccccc1)C(=O)O	2.1	27			
N[C@@H](Cc1cccc(CC(=O)O)c1)C(=O)O	25	24			
CNC(=O)c1cccc(C[C@H](N)C(=O)O)c1	88	100			
CC(C)(C)c1cccc(C[C@H](N)C(=O)O)c1	101	44			
N[C@H](Cc1cccc(C(=O)O)c1)C(=O)O	9	31			
CSCC[C@](N)(Cc1ccccc1)C(=O)O	21	56			
Cc1cc(C[C@H](N)C(=O)O)cc(C(=O)O)c1	30	28			
N[C@@H](Cc1cccc(Cc2ccccc2)c1)C(=O)O		29			
NCc1cccc(C[C@H](N)C(=O)O)c1	27	78			
N[C@H](Cc1ccccc1)C(=O)O	74	96			
COC(=O)c1cc(C)cc(C[C@H](N)C(=O)O)c1	71	56			
CC[C@H](C)[C@@H](N)C(=O)O	18	78			
N[C@@H](Cc1cccc(CO)c1)C(=O)O	99	120			
N[C@@H](Cc1cccc(C(=O)OCCO)c1)C(=O)O	81	74			
N[C@H](Cc1ccc(O)cc1)C(=O)O	35	85			
CC(=O)Oc1cccc(C[C@H](N)C(=O)O)c1	54	37			
CSCC[C@H](N)C(=O)O		89			
CSCC[C@@](N)(Cc1ccccc1)C(=O)O	-0.2	27			
N[C@@H](Cc1c[nH]c2ccccc12)C(=O)O		59			
N[C@@H](Cc1cccc(-c2ccccc2)c1)C(=O)O		29			
COC(=O)Cc1cccc(C[C@H](N)C(=O)O)c1	72	52			
CC(=O)c1cccc(C[C@H](N)C(=O)O)c1	100	96			
N[C@@H](Cc1cccc(C(F)(F)F)c1)C(=O)O	87	59			
N[C@@H](CCC(=O)O)C(=O)O	-2.4	27			
NCC(=O)O		29			
COC(=O)c1ccc(C[C@H](N)C(=O)O)cc1	37	67			
